Assay results taken from article PMC7552917, “Systematic exploration of different E3 ubiquitin ligases: an approach towards potent and selective CDK6 degraders” (Chemical Science, 2020).

Key:
[1] = elog D7.4 by chromatographic (HPLC) method; assay type: physicochemical; conditions: Polaris C18-A column, pH 7.4, read-out: elog D7.4 (experimental distribution coefficient at pH 7.4)
Description: Supplementary Information: Physical Chemistry
N. Molecular Descriptor Calculation […]
O. Physicochemical Measurements
The determination of the elog D7.4 values was performed by a chromatographic method according to […]
The column was a Polaris C18-A column (2 mm I.D., 50 mm length, 3 μm particle size) from Agilent Technologies. A linear mobile phase gradient was applied with […] TRIS buffer adjusted to pH 7.4 and MeCN. Therefore, the gradient was run from 5% […]
between the runs with a constant flow-rate of 0.8 ml/min and a temperature of 25 °C. The output wavelength of the detector was set to 269.5 nm. In order to calibrate the log D7.4 to the retention time, 6 different drugs with known log D7.4 were dissolved in DMSO and 10 µl were injected […]
Approximately 1 mg of the samples was dissolved in DMSO and 5 µl were injected. Analyses were conducted in duplicates. Subsequently, the mean retention times of the analytes were taken to calculate their log D7.4 values with aid of the calibration line.

[2] = target: T1, CDK6 (Homo sapiens, UniProt Q00534); experiment: CDK6 degradation, western blot of MM.1S cells; assay type: cell-based; conditions: MM.1S cells; for remaining activity at 0.1 µM / remaining activity at 1 µM: MM1.S, normalized to DMSO (100%), read-out: D CDK6: remaining CDK6 levels; for remaining activity at 0.1 µM / Selectivity ratio D CDK4/D CDK6 for the degradation of CDK6 over CDK4 / remaining activity at 1 µM: 16 h; for remaining activity at 0.1 µM / Selectivity ratio D CDK4/D CDK6 for the degradation of CDK6 over CDK4: 0.1 μM
T1 construct: Percentage values are normalized to DMSO-treated MM.1S cells and the respective loading controls; endogenous in cells; host or cells: MM.1S (human multiple myeloma)
T1 sequence (Q00534 whole entry): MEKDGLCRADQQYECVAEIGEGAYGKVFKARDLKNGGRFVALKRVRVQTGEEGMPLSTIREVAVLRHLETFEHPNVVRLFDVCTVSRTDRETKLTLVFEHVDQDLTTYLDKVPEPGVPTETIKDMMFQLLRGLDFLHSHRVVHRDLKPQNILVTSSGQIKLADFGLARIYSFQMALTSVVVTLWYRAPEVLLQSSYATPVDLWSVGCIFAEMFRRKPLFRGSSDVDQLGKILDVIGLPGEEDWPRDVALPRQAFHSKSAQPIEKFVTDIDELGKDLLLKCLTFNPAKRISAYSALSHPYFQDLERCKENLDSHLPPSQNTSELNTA
Text: (§1) We determined the concentration of both kinases and CRBN, the latter in order to control the expression of the corresponding ligase. Since IMiDs, such as pomalidomide, cause the degradation of the lymphoid transcription factors Ikaros (IKZF1) and Aiolos (IKZF3) through the involvement of CRBN,[53],[54] this undesired effect was inspected. […] As further characteristics of CDK4/6d, the desired selectivity of CDK6 over CDK4 degradation and the unwanted influence on the IKZF1 concentration were determined. […] Next, we determined the concentration- and time-dependent activity of 11 (Fig. S2, ESI ^†).
(§2) Multiple myeloma, leukaemia, and murine cell lines:
(§3) After respective designated treatments, cells were washed with 1× PBS and lysed in IP lysis buffer (Pierce) containing HALT protease and phosphatase inhibitor cocktail (Thermo Scientific). Sodium dodecyl sulfate-polyacrylamide gel electrophoresis (SDS-PAGE) was performed with 5–20 µg of protein loaded per sample. Gel electrophoresis was carried out at a constant voltage. Proteins were transferred onto Immobilon-P transfer membranes (Millipore). Membranes were blocked with 5% milk in Tris Buffered Saline with 0.05% Tween 20 (TBS-T) followed by overnight incubation at 4 °C with shaking in primary antibodies diluted in 5% BSA in TBS-T. After incubation with respective secondary HRP-conjugated antibodies diluted in 5% milk in TBST, detection of proteins was performed using either WesternBright ECL HRP substrate or WesternBright Sirius HRP substrate (Advansta). Chemiluminescence was detected with ChemiDoc™ XRS+ System (Bio-Rad). For further detection of other proteins on the same membrane, membranes were subjected to incubation in Restore Western Blot Stripping Buffer, followed by re-blocking, and further probing of proteins was […]

[3] = target: T2, CDK4 (Homo sapiens, UniProt P11802); experiment: CDK4 degradation, western blot of MM.1S cells; assay type: cell-based; conditions: MM1.S; 0.1 μM, 16 h, MM.1S cells, normalized to DMSO (100%); read-out: D CDK4: remaining CDK4 levels
T2 construct: Percentage values are normalized to DMSO-treated MM.1S cells and the respective loading controls; endogenous in cells; host or cells: MM.1S (human multiple myeloma)
T2 sequence (P11802 whole entry): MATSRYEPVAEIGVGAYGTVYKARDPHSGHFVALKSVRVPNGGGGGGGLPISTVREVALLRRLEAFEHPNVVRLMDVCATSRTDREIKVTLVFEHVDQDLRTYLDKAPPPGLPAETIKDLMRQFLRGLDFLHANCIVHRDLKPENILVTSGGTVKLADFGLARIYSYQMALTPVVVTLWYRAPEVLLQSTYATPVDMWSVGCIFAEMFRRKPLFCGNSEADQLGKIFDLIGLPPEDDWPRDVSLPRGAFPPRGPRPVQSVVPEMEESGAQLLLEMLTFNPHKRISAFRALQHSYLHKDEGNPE
Text: as §1, §2, §3

[4] = system: MDA-MB-231 cells; experiment: Cell viability assay (CellTiter-Glo), MDA-MB-231 breast cancer cells; assay type: cell-based, human; conditions: 96 h
Description: Breast cancer cell lines:
To access the compound effect on cell viability, cells were plated in 384-well tissue culture-treated plates (Greiner Bio One). Twenty-four hours later, tested compounds were added into culture to the desired concentrations. Cell viability was measured by using CellTiter-Glo® Luminescent Cell Viability Assay (Promega) at day 4 or day 7 post-treatment and normalized by non-treated controls. […]
Dose response curves were modeled and plotted by using GraphPad Prism software (GraphPad Software). Statistical analysis was performed using GraphPad Prism software (GraphPad Software).
Variance of biological replicates is represented as the standard error of the mean (SEM) or as the […]

[5] = Susceptibility to hydrolysis in buffer, LC/MS; assay type: physicochemical; conditions: 37 °C
Description: Next, we investigated the persistence of CDK6 degradation after single drug exposure. […] The differences were even more pronounced when conducting a drug washout-step, showing that while BSJ-03-123 kept CDK6 protein below 50% for a maximum of 6 h, CDK6 degradation mediated by PROTACs 27 and 34 was more persistent and stable for up to 72 h (Fig. 4E and S10, ESI ^†). […] Since these degraders mainly differ in the ligase-binding part, we hypothesized that the deviations in the long-term experiments (Fig. 5A) are due to chemical inactivation of the CRBN ligand. We then tested compounds 27, 34 (VHL-based) and BSJ-03-123 (8, CRBN-based) for susceptibility to hydrolysis. These PROTACs were incubated in two different buffers for 24 h at 37 °C and aliquots were analysed by LC/MS.
Fig. 5 (A) Quantification of long-term treatment experiments (see Fig. S9, ESI ^†) and (B) drug stability data at pH 1 and pH 7.4. Acetonitrile solutions of the PROTACs were mixed with two different buffers and incubated for 24 hours at 37 °C. Subsequently, aliquots were analysed by LC/MS and normalized to acetonitrile solutions.

[6] = target: T3, IKZF1 (Homo sapiens, UniProt Q13422+Q96SW2); experiment: Neosubstrate IKZF1 degradation, western blot of MM.1S cells; assay type: cell-based; conditions: MM1.S, 16 h, normalized to DMSO (100%), read-out: D IKZF1: remaining IKZF1 levels;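 further: test concentration 0.1 µM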
T3 construct: endogenous in cells; host or cells: MM.1S (human multiple myeloma)
T3 sequence (Q13422 whole entry): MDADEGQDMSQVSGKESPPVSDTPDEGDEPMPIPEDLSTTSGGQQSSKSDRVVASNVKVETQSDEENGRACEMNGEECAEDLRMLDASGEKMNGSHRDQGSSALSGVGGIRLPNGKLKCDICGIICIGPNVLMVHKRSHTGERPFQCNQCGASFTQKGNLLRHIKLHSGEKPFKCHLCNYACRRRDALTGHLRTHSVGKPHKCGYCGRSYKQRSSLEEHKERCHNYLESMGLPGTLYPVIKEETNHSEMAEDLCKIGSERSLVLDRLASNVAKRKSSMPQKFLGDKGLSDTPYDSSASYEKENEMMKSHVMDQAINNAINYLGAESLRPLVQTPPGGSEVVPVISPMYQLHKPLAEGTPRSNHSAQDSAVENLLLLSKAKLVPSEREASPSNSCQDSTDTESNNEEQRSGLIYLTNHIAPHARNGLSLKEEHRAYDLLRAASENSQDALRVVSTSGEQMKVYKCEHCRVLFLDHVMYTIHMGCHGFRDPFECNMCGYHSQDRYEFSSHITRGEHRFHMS
T3 sequence (Q96SW2 whole entry): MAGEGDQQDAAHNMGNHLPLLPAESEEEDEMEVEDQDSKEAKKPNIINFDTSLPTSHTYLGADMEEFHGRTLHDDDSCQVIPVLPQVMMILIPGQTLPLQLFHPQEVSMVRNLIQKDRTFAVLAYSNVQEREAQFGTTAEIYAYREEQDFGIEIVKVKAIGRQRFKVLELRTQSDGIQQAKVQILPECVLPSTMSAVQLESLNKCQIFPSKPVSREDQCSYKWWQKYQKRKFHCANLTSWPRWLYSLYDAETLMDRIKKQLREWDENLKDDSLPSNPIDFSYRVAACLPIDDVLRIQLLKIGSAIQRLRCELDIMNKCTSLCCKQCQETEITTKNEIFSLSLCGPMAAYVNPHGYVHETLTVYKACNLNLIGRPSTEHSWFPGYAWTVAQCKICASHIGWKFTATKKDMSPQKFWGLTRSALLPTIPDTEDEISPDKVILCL
T3 sequence (Q16531 whole entry partner): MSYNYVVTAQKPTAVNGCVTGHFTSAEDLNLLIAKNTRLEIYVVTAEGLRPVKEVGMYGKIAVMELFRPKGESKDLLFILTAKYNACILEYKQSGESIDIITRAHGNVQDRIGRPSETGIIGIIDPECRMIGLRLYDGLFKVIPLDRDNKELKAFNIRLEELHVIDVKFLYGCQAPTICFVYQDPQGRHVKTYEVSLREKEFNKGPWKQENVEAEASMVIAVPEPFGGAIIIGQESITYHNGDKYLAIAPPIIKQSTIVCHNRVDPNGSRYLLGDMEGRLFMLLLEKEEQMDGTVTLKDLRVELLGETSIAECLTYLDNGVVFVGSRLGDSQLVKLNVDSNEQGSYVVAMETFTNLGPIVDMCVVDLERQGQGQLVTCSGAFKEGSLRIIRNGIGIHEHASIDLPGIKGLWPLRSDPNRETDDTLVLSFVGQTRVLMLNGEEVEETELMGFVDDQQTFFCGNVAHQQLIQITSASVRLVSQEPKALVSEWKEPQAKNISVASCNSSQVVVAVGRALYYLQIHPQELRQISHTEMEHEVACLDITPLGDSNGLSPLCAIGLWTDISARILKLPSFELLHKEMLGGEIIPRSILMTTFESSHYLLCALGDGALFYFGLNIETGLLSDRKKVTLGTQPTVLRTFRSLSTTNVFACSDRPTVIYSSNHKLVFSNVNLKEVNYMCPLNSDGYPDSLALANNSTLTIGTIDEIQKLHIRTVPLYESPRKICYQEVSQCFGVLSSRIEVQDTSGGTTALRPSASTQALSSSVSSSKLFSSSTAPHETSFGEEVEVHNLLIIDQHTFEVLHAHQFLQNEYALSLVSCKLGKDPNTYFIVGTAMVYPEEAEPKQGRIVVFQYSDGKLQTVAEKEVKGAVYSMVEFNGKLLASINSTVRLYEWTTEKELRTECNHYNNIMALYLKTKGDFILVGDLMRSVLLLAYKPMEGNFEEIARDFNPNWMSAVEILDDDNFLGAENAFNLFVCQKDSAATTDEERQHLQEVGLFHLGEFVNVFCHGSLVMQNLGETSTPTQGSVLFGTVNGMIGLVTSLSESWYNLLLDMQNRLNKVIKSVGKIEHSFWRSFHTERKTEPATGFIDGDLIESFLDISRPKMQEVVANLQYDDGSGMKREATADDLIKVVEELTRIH
Text: as §1, §2, §3

[7] = target: T4, CDK6 (Mus musculus, UniProt Q64261); experiment: CDK6 degradation in murine cell lines 32D and Ba/F3, western blot; assay type: cell-based; conditions: 16 h
T4 construct: western blotting experiments with the murine myeloid 32D cell line and the murine pro-B-cell line Ba/F3; endogenous in cells; host or cells: 32D (murine myeloid) and Ba/F3 (murine pro-B)
T4 sequence (Q64261 whole entry): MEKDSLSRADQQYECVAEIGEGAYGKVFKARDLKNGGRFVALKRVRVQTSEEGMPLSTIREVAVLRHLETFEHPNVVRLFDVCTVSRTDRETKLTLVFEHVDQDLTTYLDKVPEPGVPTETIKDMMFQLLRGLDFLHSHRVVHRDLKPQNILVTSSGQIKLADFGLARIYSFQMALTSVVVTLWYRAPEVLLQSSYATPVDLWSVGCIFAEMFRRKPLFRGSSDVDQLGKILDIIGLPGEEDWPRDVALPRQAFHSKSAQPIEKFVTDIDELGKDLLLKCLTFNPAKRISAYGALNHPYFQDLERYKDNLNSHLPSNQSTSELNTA
Text: When bound to IMiDs, human CRBN induces the recruitment of the neosubstrates IKZF1 and IKZF3 via a Val-388 interaction,[53],[55] leading to their subsequent proteasomal degradation. […] The previously reported BRD4 degrader dBET1 was capable of binding to murine CRBN and performed as an active PROTAC in murine cells.[57],[58] To test whether our CRBN-based degrader 11 maintains CDK6 degradation across different species, we performed western blotting experiments with the murine myeloid 32D cell line and the murine pro-B-cell line Ba/F3 (Fig. 2A). […] While the activity of BSJ-03-123 (8) was attenuated at this concentration, 11 mediated on-target effects at concentrations as low as 10 nM (Fig. 2B).
Fig. 2 CDK6 degradation by CRBN-based degrader 11 is conserved in murine cell lines. (A) Human cell lines MM.1S and murine cell lines 32D and Ba/F3 were treated with vehicle, pomalidomide (POM), CDK6-selective degrader BSJ-03-123 (8), negative control 21, or PROTAC 11 at 0.1 μM for 16 h; (B) CDK6-degradation is induced in a dose-dependent manner in murine cells. Murine cell lines 32D and Ba/F3 were treated with PROTAC 11 at indicated concentrations for 16 h.
as §2
After respective designated treatments, cells were washed with 1× PBS and lysed in IP lysis buffer (Pierce) containing HALT protease and phosphatase inhibitor cocktail (Thermo Scientific). Sodium dodecyl sulfate-polyacrylamide gel electrophoresis (SDS-PAGE) was performed with 5–20 µg of protein loaded per sample. Gel electrophoresis was carried out at a constant voltage. Proteins were transferred onto Immobilon-P transfer membranes (Millipore). Membranes were blocked with 5% milk in Tris Buffered Saline with 0.05% Tween 20 (TBS-T) followed by overnight incubation at 4 °C with shaking in primary antibodies diluted in 5% BSA in TBS-T. After incubation with respective secondary HRP-conjugated antibodies diluted in 5% milk in TBST, detection of proteins was performed using either WesternBright ECL HRP substrate or WesternBright Sirius HRP substrate (Advansta). Chemiluminescence was detected with ChemiDoc™ XRS+ System (Bio-Rad). For further detection of other proteins on the same membrane, membranes were subjected to incubation in Restore Western Blot Stripping Buffer, followed by re-blocking, and further probing of proteins was carried out. Quantification was performed using ImageJ (National Institutes of Health). […]

[8] = set-up: method as in earlier work; conditions: calibration compounds; cited from earlier work

## CC(=O)c1c(C)c2cnc(Nc3ccc(N4CCN(CCOCCOCCOc5cc(-c6scnc6C)ccc5CNC(=O)[C@@H]5C[C@H](O)CN5C(=O)[C@H](C(C)C)N5Cc6ccccc6C5=O)CC4)cn3)nc2n(C2CCCC2)c1=O [compound 32]
[1]
  chromatographic logD: 3
[2]
  remaining activity at 0.1 µM: > 95%
[3]
  remaining activity at 0.1 µM: 82%
[4]
  Inhibitory activity on cell viability relative to palbociclib: inhibitory activity comparable to palbociclib

## CC(=O)c1c(C)c2cnc(Nc3ccc(N4CCN(CCOCCOCCOCCNC(=O)COc5cccc6c5C(=O)N(C5CCC(=O)NC5=O)C6=O)CC4)cn3)nc2n(C2CCCC2)c1=O (stereo not drawn) [8 (BSJ-03-123), BSJ-03-123, reference compound]
[1]
  chromatographic logD: 2.5
[2]
  Selectivity ratio D CDK4/D CDK6 for the degradation of CDK6 over CDK4: 4.9
  remaining activity at 0.1 µM: 5.5%
  remaining activity at 1 µM: 2.1%
[2]; 0.1 μM for 16 h, then washout with PBS
  Time CDK6 degradation persists (CDK6 protein below 50%) after drug washout: ≤ 6 h
[2]; no washout
  Persistence of CDK6 degradation after single drug exposure (long-term treatment): began to recover after 24 h
[5]; buffer pH 1, 24 h
  Stability to hydrolysis at pH 1: stable
[5]; buffer pH 7.4, 24 h
  Stability to hydrolysis at pH 7.4: pronounced decomposition
[3]
  remaining activity at 0.1 µM: 27%
[6]
  remaining activity at 0.1 µM: 82%
[7]; 32D and Ba/F3 cells, 0.1 μM
  CDK6 degradation in murine cells: attenuated

## CC1(C)C(C=C(Cl)Cl)C1C(=O)OCc1cccc(Oc2ccccc2)c1 (stereo not drawn) [Permethrin]
[8]
  Lit. log D7.4: 6.50

## CC(=O)c1c(C)c2cnc(Nc3ccc(N4CCN(C(=O)CCCCCOCCCCOCCCCOCCCCNc5cccc6c5C(=O)N(C5CCC(=O)NC5=O)C6=O)CC4)cn3)nc2n(C2CCCC2)c1=O (stereo not drawn) [compound 18]
[1]
  chromatographic logD: 4.4
[2]
  Selectivity ratio D CDK4/D CDK6 for the degradation of CDK6 over CDK4: 3.4
  remaining activity at 0.1 µM: 17%
[3]
  remaining activity at 0.1 µM: 57%
[6]
  remaining activity at 0.1 µM: 5.9%

## COCCc1ccc(OCC(O)CNC(C)C)cc1 (stereo not drawn) [Metoprolol]
[8]
  Lit. log D7.4: –0.06

## CC(=O)c1c(C)c2cnc(Nc3ccc(N4CCN(CCCCCCCC(=O)N[C@H](C(=O)N5C[C@H](O)C[C@H]5C(=O)NCc5ccc(-c6scnc6C)cc5)C(C)(C)C)CC4)cn3)nc2n(C2CCCC2)c1=O [compound 22]
[1]
  chromatographic logD: 3.3
[2]
  Selectivity ratio D CDK4/D CDK6 for the degradation of CDK6 over CDK4: 4.1
  remaining activity at 0.1 µM: 2.9%
  remaining activity at 1 µM: 4.1%
[3]
  remaining activity at 0.1 µM: 12%
[7]; Ba/F3 and 32D cells, 1 μM
  CDK6 degradation in murine cells: pronounced CDK6 degradation

## COc1ccc([C@@H]2Sc3ccccc3N(CCN(C)C)C(=O)[C@@H]2OC(C)=O)cc1 [Diltiazem]
[8]
  Lit. log D7.4: 2.70

## CC(=O)c1c(C)c2cnc(Nc3ccc(N4CCN(C(=O)CCCCCNc5cccc6c5C(=O)N(C5CCC(=O)NC5=O)C6=O)CC4)cn3)nc2n(C2CCCC2)c1=O (stereo not drawn) [compound 11]
[1]
  chromatographic logD: 3.4
[2]
  Selectivity ratio D CDK4/D CDK6 for the degradation of CDK6 over CDK4: 2.3
  remaining activity at 0.1 µM: 11%
[3]
  remaining activity at 0.1 µM: 25%
[6]
  remaining activity at 0.1 µM: 1%
[7]; 32D and Ba/F3 cells, 0.1 μM
  CDK6 degradation in murine cells: induced strong CDK6 degradation
[7]; 32D and Ba/F3 cells
  Lowest concentration mediating on-target effects (CDK6 degradation) in murine cells: 10 nM

## CC(=O)c1c(C)c2cnc(Nc3ccc(N4CCN(C(=O)COCCOCCNc5cccc6c5C(=O)N(C5CCC(=O)NC5=O)C6=O)CC4)cn3)nc2n(C2CCCC2)c1=O (stereo not drawn) [compound 12]
[1]
  chromatographic logD: 2.8
[2]
  Selectivity ratio D CDK4/D CDK6 for the degradation of CDK6 over CDK4: 2.3
  remaining activity at 0.1 µM: 8.4%
[3]
  remaining activity at 0.1 µM: 19%
[6]
  remaining activity at 0.1 µM: 0.8%

## CC(=O)c1c(C)c2cnc(Nc3ccc(N4CCN(CCCCCCCC(=O)N[C@H](C(=O)N5C[C@@H](O)C[C@H]5C(=O)NCc5ccc(-c6scnc6C)cc5)C(C)(C)C)CC4)cn3)nc2n(C2CCCC2)c1=O [compound 26]
[1]
  chromatographic logD: 3.2
[2]
  remaining activity at 0.1 µM: > 95%
[3]
  remaining activity at 0.1 µM: > 95%
[4]
  Inhibitory activity on cell viability relative to palbociclib: inhibitory activity comparable to palbociclib
